Test results published in patent US9273058B2 (BRISTOL-MYERS SQUIBB COMPANY, priority 2013, dated 2016).
Read-outs that look alike come from different tables or passages of the source.

Tests used:
CK1ε = CK1ε (Homo sapiens, UniProt P49674); experiment: CK1ε kinase assay (Caliper LabChip electrophoretic separation of fluoresceinated peptide substrate and product); type: biochemical; conditions: 200 pM CK1ε, 50 μM ATP, 1.5 μM peptide, 22 hours at room temperature
Summary of the method: (§1)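 IC50 values were obtained by non-linear regression from eleven-concentration titrations. The kinase reactions were incubated for 22 hours at room temperature before termination with 35 mM EDTA.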

CK1δ = CK1δ (Homo sapiens, UniProt P48730); experiment: CK1δ kinase assay (Caliper LabChip electrophoretic separation of fluoresceinated peptide substrate and product); type: biochemical; conditions: 200 pM CK1δ, 50 μM ATP, 1.5 μM peptide, 22 hours at room temperature
Summary of the method: as §1

Sequence of CK1δ (P48730 whole entry): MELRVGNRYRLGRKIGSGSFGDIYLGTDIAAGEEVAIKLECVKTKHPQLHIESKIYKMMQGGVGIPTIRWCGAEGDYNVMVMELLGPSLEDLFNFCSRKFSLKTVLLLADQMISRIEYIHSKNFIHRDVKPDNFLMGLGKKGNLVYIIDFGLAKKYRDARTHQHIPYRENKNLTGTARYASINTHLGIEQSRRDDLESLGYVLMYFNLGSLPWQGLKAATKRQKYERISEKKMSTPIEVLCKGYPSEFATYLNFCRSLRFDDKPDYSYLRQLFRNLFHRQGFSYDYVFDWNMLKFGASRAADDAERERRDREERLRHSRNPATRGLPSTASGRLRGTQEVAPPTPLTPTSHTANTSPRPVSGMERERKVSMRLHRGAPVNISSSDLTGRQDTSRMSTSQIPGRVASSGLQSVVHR
Sequence of CK1ε (P49674 whole entry): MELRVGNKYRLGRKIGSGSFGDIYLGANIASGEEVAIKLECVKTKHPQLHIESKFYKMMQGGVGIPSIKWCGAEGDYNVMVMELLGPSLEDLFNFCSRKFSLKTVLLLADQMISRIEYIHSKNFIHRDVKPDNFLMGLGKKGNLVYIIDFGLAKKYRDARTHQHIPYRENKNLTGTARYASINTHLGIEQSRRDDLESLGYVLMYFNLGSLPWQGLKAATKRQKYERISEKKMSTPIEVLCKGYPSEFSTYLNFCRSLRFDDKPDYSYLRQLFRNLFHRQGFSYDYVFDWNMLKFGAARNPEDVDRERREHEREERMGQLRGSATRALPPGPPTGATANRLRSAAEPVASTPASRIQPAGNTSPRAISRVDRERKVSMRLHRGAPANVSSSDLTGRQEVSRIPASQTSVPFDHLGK

Row | Structure (SMILES) | IC50 (CK1ε; read-out: CK1ε IC50 range) [nM] | IC50 (CK1δ; read-out: CK1δ IC50 range) [nM] | IC50 (CK1ε; read-out: CK1ε) [nM] | IC50 (CK1δ; read-out: CK1δ) [nM]
1 | CC1CC(NC(=O)N2CCn3nc(-c4cccc(Cl)c4)c(C(N)=O)c3C2)C1 (single isomer, unassigned) [Compound 250, 2-(3-Chlorophenyl)-N^5-(3-methylcyclobutyl)-6,7-dihydropyrazolo[1,5-a]pyrazine-3,5(4H)-dicarboxamide] | 0.01 to 10 | 0.01 to 10 |  | 
2 | CC1(NC(=O)N2CCn3nc(-c4ccc(F)c(Cl)c4)c(C(N)=O)c3C2)CC2(CC2)C1 [Compound 317, 2-(3-Chloro-4-fluorophenyl)-N^5-(5-methylspiro[2.3]hexan-5-yl)-6,7-dihydropyrazolo[1,5-a]pyrazine-3,5(4H)-dicarboxamide] | 0.01 to 10 | 0.01 to 10 |  | 
3 | NC(=O)c1c(-c2cc(F)cc(Cl)c2)nn2c1CN(C(=O)NC1CC(F)(F)C1)CC2 [Compound 295, 2-(3-Chloro-5-fluorophenyl)-N^5-(3,3-difluorocyclobutyl)-6,7-dihydropyrazolo[1,5-a] pyrazine-3,5(4H)-dicarboxamide] | 0.01 to 10 | 0.01 to 10 |  | 
4 | CC(C)(C)NC(=O)N1CCn2nc(-c3cc(F)ccc3F)c(C(N)=O)c2C1 [Compound 151, N^5-(tert-Butyl)-2-(2,5-difluorophenyl)-6,7-dihydropyrazolo[1,5-a] pyrazine-3,5(4H)-dicarboxamide] | 100 to 2000 | 100 to 2000 | 179 | 122
5 | NC(=O)c1c(-c2cccc(F)c2)nn2c1CN(C(=O)NC13CC(C1)C3)CC2 [Compound 24, N^5-(Bicyclo[1.1.1]pentan-1-yl)-2-(3-fluorophenyl)-6,7-dihydropyrazolo[1,5-a]pyrazine-3,5(4H)-dicarboxamide] | 10 to 100 | 10 to 100 |  | 
6 | COc1ccc([C@H]2C[C@@H](NC(=O)N3CCn4nc(-c5ccc(Cl)c(Cl)c5)c(C(N)=O)c4C3)C2)cc1 [Compound 280, 2-(3,4-dichlorophenyl)-N^5-((1s,3s)-3-(4-methoxyphenyl)cyclobutyl)-6,7-dihydropyrazolo[1,5-a] pyrazine-3,5(4H)-dicarboxamide] | 0.01 to 10 | 0.01 to 10 |  | 
7 | CC1(NC(=O)N2CCn3nc(-c4cccc(Cl)c4)c(C(N)=O)c3C2)CC1 [Compound A42, 2-(3-Chlorophenyl)-N^5-(1-methylcyclopropyl)-6,7-dihydropyrazolo[1,5-a]pyrazine-3,5(4H)-dicarboxamide] | 0.01 to 10 | 0.01 to 10 |  | 
8 | NC(=O)c1c(-c2ccc(Cl)c(Cl)c2)nn2c1CN(C(=O)NC1CC3(C1)CC3(F)F)CC2 (single isomer, unassigned) [Compound 325, 2-(3,4-Dichlorophenyl)-N^5-(1,1-difluorospiro[2.3]hexan-5-yl)-6,7-dihydropyrazolo[1,5-a]pyrazine-3,5(4H)-dicarboxamide] | 0.01 to 10 | 0.01 to 10 |  | 
9 | CC1CN(C(=O)NC(C)(C)C)Cc2c(C(N)=O)c(-c3cccc(F)c3)nn21 (single isomer, unassigned) [Compound A108, N^5-(tert-Butyl)-2-(3-fluorophenyl)-7-methyl-6,7-dihydropyrazolo[1,5-a]pyrazine-3,5(4H)-dicarboxamide] | 10 to 100 | 10 to 100 |  | 
10 | CC(C)(NC(=O)N1CCn2nc(-c3cccc(F)c3)c(C(N)=O)c2C1)C(F)(F)F [Compound 13, 2-(3-Fluorophenyl)-N^5-(1,1,1-trifluoro-2-methylpropan-2-yl)-6,7-dihydropyrazolo[1,5-a]pyrazine-3,5(4H)-dicarboxamide] | 10 to 100 | 0.01 to 10 |  | 
11 | NC(=O)c1c(-c2cccc(F)c2)nn2c1CN(C(=O)NC1CCC(F)(F)CC1)CC2 [Compound 12, N^5-(4,4-Difluorocyclohexyl)-2-(3-fluorophenyl)-6,7-dihydropyrazolo[1,5-a]pyrazine-3,5(4H)-dicarboxamide] | 100 to 2000 | 10 to 100 |  | 
12 | CC(C)(C)NC(=O)N1CCn2nc(-c3cncnc3)c(C(N)=O)c2C1 [Compound 142, N^5-(tert-Butyl)-2-(pyrimidin-5-yl)-6,7-dihydropyrazolo [1,5-a]pyrazine-3,5(4H)-dicarboxamide] | 100 to 2000 | 100 to 2000 |  | 894
13 | CC1CN(C(=O)NC2CC(F)(F)C2)Cc2c(C(N)=O)c(-c3cccc(Cl)c3)nn21 (single isomer, unassigned) [Compound A111, 2-(3-Chlorophenyl)-N^5-(3,3-difluorocyclobutyl)-7-methyl-6,7-dihydropyrazolo[1,5-a]pyrazine-3,5(4H)-dicarboxamide] | 0.01 to 10 | 0.01 to 10 |  | 
14 | CC1CC(NC(=O)N2CCn3nc(-c4ccc(Cl)c(Cl)c4)c(C(N)=O)c3C2)C1 (single isomer, unassigned) [Compound 249, 2-(3,4-Dichlorophenyl)-N^5-(3-methylcyclobutyl)-6,7-dihydropyrazolo[1,5-a]pyrazine-3,5(4H)-dicarboxamide] | 0.01 to 10 | 0.01 to 10 |  | 
15 | CC(C)(C)NC(=O)N1Cc2c(C(N)=O)c(-c3cccc(F)c3)nn2C(CF)C1 (single isomer, unassigned) [Compound A106, N^5-(tert-Butyl)-7-(fluoromethyl)-2-(3-fluorophenyl)-6,7-dihydropyrazolo[1,5-a]pyrazine-3,5(4H)-dicarboxamide] | 100 to 2000 | 100 to 2000 |  | 
16 | NC(=O)c1c(-c2cccc(Cl)c2)nn2c1CN(C(=O)NC13CCCC(CCC1)C3)CC2 [Compound A84, N^5-((1r,5r)-Bicyclo[3.3.1]nonan-1-yl)-2-(3-chlorophenyl)-6,7-dihydropyrazolo[1,5-a]pyrazine-3,5(4H)-dicarboxamide] | 0.01 to 10 | 0.01 to 10 |  | 
17 | CC(C)(C)NC(=O)N1CCn2nc(-c3ccc(F)cc3F)c(C(N)=O)c2C1 [Compound 124, N^5-(tert-Butyl)-2-(2,4-difluorophenyl)-6,7-dihydropyrazolo[1,5-a] pyrazine-3,5(4H)-dicarboxamide] |  |  | 118 | 172
18 | CC(C)(NC(=O)N1CCn2nc(-c3ccc(Cl)c(Cl)c3)c(C(N)=O)c2C1)C(F)F [Compound 199, 2-(3,4-Dichlorophenyl)-N^5-(1,1-difluoro-2-methylpropan-2-yl)-6,7-dihydropyrazolo[1,5-a]pyrazine-3,5(4H)-dicarboxamide] | 0.01 to 10 | 0.01 to 10 |  | 
19 | N#CCC1(NC(=O)N2CCn3nc(-c4ccc(Cl)c(Cl)c4)c(C(N)=O)c3C2)CCC1 [Compound 222, N^5-(1-(Cyanomethyl)cyclobutyl)-2-(3,4-dichlorophenyl)-6,7-dihydropyrazolo[1,5-a] pyrazine-3,5(4H)-dicarboxamide] | 0.01 to 10 | 0.01 to 10 |  | 
20 | NC(=O)c1c(-c2cccc(Cl)c2)nn2c1CN(C(=O)NC1(C(F)F)CC(F)(F)C1)CC2 [Compound 306, 2-(3-Chlorophenyl)-N^5-(1-(difluoromethyl)-3,3-difluorocyclobutyl)-6,7-dihydropyrazolo[1,5-a] pyrazine-3,5(4H)-dicarboxamide] | 0.01 to 10 | 0.01 to 10 |  | 
21 | CC(C)(O)[C@H](F)CNC(=O)N1CCn2nc(-c3ccc(Cl)c(Cl)c3)c(C(N)=O)c2C1 [Compound 338, (R)-2-(3,4-Dichlorophenyl)-N^5-(2-fluoro-3-hydroxy-3-methylbutyl)-6,7-dihydropyrazolo[1,5-a]pyrazine-3,5(4H)-dicarboxamide] | 0.01 to 10 | 0.01 to 10 |  | 
22 | CC(C)(C)NC(=O)N1CCn2nc(-c3ccsc3)c(C(N)=O)c2C1 [Compound 121, N^5-(tert-Butyl)-2-(thiophen-3-yl)-6,7-dihydropyrazolo[1,5-a]pyrazine-3,5(4H)-dicarboxamide] | 100 to 2000 | 10 to 100 |  | 
